# Results published in ChEMBL document CHEMBL3137667, “[Drug-induced liver injury; fourteenth updated edition of the bibliographic database of liver injuries and related drugs]” (Gastroenterol Clin Biol, 2004).
# Columns and labels:
# [1] = human
# [2] = Highest frequency of moderate liver toxicity observed during clinical trials, expressed as a percentage. [column '% BIOL' in source]; settings: human
# [3] = human, serum
# [4] = human; remark: listed apart in the source
# [5] = human, serum; remark: listed apart in the source
# [6] = Highest frequency of acute liver toxicity observed during clinical trials, expressed as a percentage. [column '% AIGUE' in source]; settings: human
# [7] = human; remark: listed apart in the source
# [8] = Times to onset, minimal and maximal, observed in the indexed observations. [column 'DELAI' in source]; settings: human
# [9] = human; remark: listed apart in the source
# [10] = human; remark: listed apart in the source
# [11] = Proposed mechanism(s) of liver damage. [column 'MEC' in source]; settings: human
# [12] = human; remark: listed apart in the source
# [13] = human, serum, 4383 h
# [14] = human; remark: listed apart in the source
# [15] = human; remark: listed apart in the source
# [16] = Presence of at least one case with successful reintroduction. [column 'REINT' in source]; settings: human
# [17] = human; remark: listed apart in the source
# [18] = human; remark: listed apart in the source
# [19] = Comments (NB not yet translated). [column 'COMMENTAIRES' in source]; settings: human
# 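Throughout, for Hepatotoxicity (association with vascular disease): count of indexed literature references reporting vascular liver injury in humans, e.g. peliosis hepatitis, hepatic veno-occlusive disease or Budd-Chiari syndrome.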
# 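Throughout, for Hepatotoxicity (benign tumour): value is a count of indexed literature references citing a benign tumour confirmed by histopathology.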
# 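Throughout, for Hepatotoxicity (choleostasis): human cholestatic liver injury, shown by histopathology or by peak ALT or AST elevation over alkaline phosphatase ratio below 2, value counts indexed literature reports.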
# 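Throughout, for Hepatotoxicity (chronic liver disease): chronic liver injury confirmed by histopathology or persistently raised serum aminotransferase activity beyond 6 months, value given as the count of indexed literature references.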
# 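Throughout, for Hepatotoxicity (cirrhosis): value is a count of indexed literature references reporting cirrhosis confirmed by histopathology.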
# 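Throughout, for Hepatotoxicity (cytolytic): human cytolytic liver injury, shown by histopathology or by a ratio above 5 of peak ALT or AST elevation to alkaline phosphatase elevation, value counts indexed references.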
# 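Throughout, for Hepatotoxicity (granulomatous hepatitis): value is a count of indexed literature references reporting granulomatous liver disease confirmed by histopathology.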
# 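Throughout, for Hepatotoxicity (malignant tumour): malignant tumour confirmed by histopathology, value gives the count of indexed literature references reporting it.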
# 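Throughout, for Hepatotoxicity (severe hepatitis): human clinical data: severe hepatitis, meaning potentially life-threatening liver failure or clinically observed cases, the value counts how many indexed literature references report it.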
# 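Throughout, for Hepatotoxicity (steatosis): steatosis confirmed by histopathology, value is the count of indexed references.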
smiles,measurement,setting,value
Cc1nnc2n1-c1ccc(Cl)cc1C(c1ccccc1)=NC2 [ALPRAZOLAM],Hepatotoxicity (association with vascular disease),[1],1
same,Hepatotoxicity (moderate),[2],8%
same,Hepatotoxicity (moderate),[3],3
same,Hepatotoxicity (cirrhosis),[4],0
same,Hepatotoxicity (acute),[5],4
same,Hepatotoxicity (acute),[6],0.4%
same,Hepatotoxicity (malignant tumour),[7],0
same,Hepatotoxicity (time to onset),[8],3 days - 3 weeks
same,Hepatotoxicity (choleostasis),[9],1
same,Hepatotoxicity (benign tumour),[10],0
same,Hepatotoxicity (mechanism),[11],Dose-dependant
same,Hepatotoxicity (granulomatous hepatitis),[12],0
same,Hepatotoxicity (chronic liver disease),[13],0
same,Hepatotoxicity (steatosis),[14],0
same,Hepatotoxicity (animal toxicity known),[15],A
same,Hepatotoxicity (successful reintroduction),[16],yes
same,Hepatotoxicity (severe hepatitis),[17],1
same,Hepatotoxicity (cytolytic),[18],2
Cc1ncc([N+](=O)[O-])n1CCO [METRONIDAZOLE],Hepatotoxicity (association with vascular disease),[1],0
same,Hepatotoxicity (moderate),[2]; Liver,25%
same,Hepatotoxicity (moderate),[3],4
same,Hepatotoxicity (cirrhosis),[4],0
same,Hepatotoxicity (acute),[5],10
same,Hepatotoxicity (acute),[6]; Liver,0%
same,Hepatotoxicity (malignant tumour),[7],0
same,Hepatotoxicity (time to onset),[8],1 day - 2.3 months
same,Hepatotoxicity (choleostasis),[9],2
same,Hepatotoxicity (benign tumour),[10],0
same,Hepatotoxicity (mechanism),[11],Dose-dependant
same,Hepatotoxicity (granulomatous hepatitis),[12],0
same,Hepatotoxicity (chronic liver disease),[13],0
same,Hepatotoxicity (steatosis),[14],0
same,Hepatotoxicity (animal toxicity known),[15],yes
same,Hepatotoxicity (successful reintroduction),[16],yes
same,Hepatotoxicity (severe hepatitis),[17]; Liver,1
same,Hepatotoxicity (cytolytic),[18],8
O=c1ccc2ccccc2o1 [COUMARIN],Hepatotoxicity (association with vascular disease),[1],0
same,Hepatotoxicity (moderate),[2],8.7%
same,Hepatotoxicity (moderate),[3],8
same,Hepatotoxicity (cirrhosis),[4],0
same,Hepatotoxicity (acute),[5],16
same,Hepatotoxicity (acute),[6],4.3%
same,Hepatotoxicity (malignant tumour),[7],0
same,Hepatotoxicity (time to onset),[8],5 days - 6 months
same,Hepatotoxicity (choleostasis),[9],1
same,Hepatotoxicity (benign tumour),[10],0
same,Hepatotoxicity (mechanism),[11],Dose-dependant
same,Hepatotoxicity (granulomatous hepatitis),[12],0
same,Hepatotoxicity (chronic liver disease),[13],0
same,Hepatotoxicity (steatosis),[14],0
same,Hepatotoxicity (animal toxicity known),[15],yes
same,Hepatotoxicity (successful reintroduction),[16],yes
same,Hepatotoxicity (severe hepatitis),[17],3
same,Hepatotoxicity (cytolytic),[18],11
NC(N)=Nc1nc(CSCCN/C=N/S(=O)(=O)c2ccc(Br)cc2)cs1 [EBROTIDINE],Hepatotoxicity (association with vascular disease),[1],0
same,Hepatotoxicity (moderate),[2],0%
same,Hepatotoxicity (moderate),[3],0
same,Hepatotoxicity (cirrhosis),[4],1
same,Hepatotoxicity (acute),[5],2
same,Hepatotoxicity (acute),[6],0%
same,Hepatotoxicity (malignant tumour),[7],0
same,Hepatotoxicity (time to onset),[8],2 weeks - 6 months
same,Hepatotoxicity (choleostasis),[9],0
same,Hepatotoxicity (benign tumour),[10],0
same,Hepatotoxicity (granulomatous hepatitis),[12],0
same,Hepatotoxicity (chronic liver disease),[13],1
same,Hepatotoxicity (steatosis),[14],0
same,Hepatotoxicity (animal toxicity known),[15],yes
same,Hepatotoxicity (successful reintroduction),[16],yes
same,Hepatotoxicity (comment),[19],AC_ANTI-ML
same,Hepatotoxicity (severe hepatitis),[17],1
same,Hepatotoxicity (cytolytic),[18],2
CN(N=O)C(=O)N[C@@H](C=O)[C@@H](O)[C@H](O)[C@H](O)CO [STREPTOZOCIN],Hepatotoxicity (association with vascular disease),[1],0
same,Hepatotoxicity (moderate),[2],67%
same,Hepatotoxicity (moderate),[3],9
same,Hepatotoxicity (cirrhosis),[4],0
same,Hepatotoxicity (acute),[5],3
same,Hepatotoxicity (acute),[6],35.3%
same,Hepatotoxicity (malignant tumour),[7],0
same,Hepatotoxicity (time to onset),[8],4 days - 6 weeks
same,Hepatotoxicity (choleostasis),[9],0
same,Hepatotoxicity (benign tumour),[10],0
same,Hepatotoxicity (granulomatous hepatitis),[12],0
same,Hepatotoxicity (chronic liver disease),[13],0
same,Hepatotoxicity (steatosis),[14],0
same,Hepatotoxicity (animal toxicity known),[15],yes
same,Hepatotoxicity (successful reintroduction),[16],yes
same,Hepatotoxicity (comment),[19],CHOLANGITE/IAH
same,Hepatotoxicity (severe hepatitis),[17],2
same,Hepatotoxicity (cytolytic),[18],1
C[C@@H]1[C@H](O)[C@@H](C)/C=C/C=C/C=C/C=C/C=C/C=C/C=C/[C@H](O[C@@H]2O[C@H](C)[C@@H](O)[C@H](N)[C@@H]2O)C[C@@H]2O[C@](O)(C[C@@H](O)C[C@@H](O)[C@H](O)CC[C@@H](O)C[C@@H](O)CC(=O)O[C@H]1C)C[C@H](O)[C@H]2C(=O)O [AMPHOTERICIN B],Hepatotoxicity (association with vascular disease),[1],0
same,Hepatotoxicity (moderate),[2],91.7%
same,Hepatotoxicity (moderate),[3],28
same,Hepatotoxicity (cirrhosis),[4],0
same,Hepatotoxicity (acute),[5],15
same,Hepatotoxicity (acute),[6],50%
same,Hepatotoxicity (malignant tumour),[7],0
same,Hepatotoxicity (time to onset),[8],2 days - 4 months
same,Hepatotoxicity (choleostasis),[9],7
same,Hepatotoxicity (benign tumour),[10],0
same,Hepatotoxicity (mechanism),[11],Dose-dependant
same,Hepatotoxicity (granulomatous hepatitis),[12],0
same,Hepatotoxicity (chronic liver disease),[13],0
same,Hepatotoxicity (steatosis),[14],2
same,Hepatotoxicity (animal toxicity known),[15],yes
same,Hepatotoxicity (successful reintroduction),[16],yes
same,Hepatotoxicity (severe hepatitis),[17],4
same,Hepatotoxicity (cytolytic),[18],6
O=C1CN(/N=C/c2ccc(-c3ccc([N+](=O)[O-])cc3)o2)C(O)=N1 [DANTROLENE],Hepatotoxicity (association with vascular disease),[1],0
same,Hepatotoxicity (moderate),[2],1.8%
same,Hepatotoxicity (moderate),[3],11
same,Hepatotoxicity (cirrhosis),[4],0
same,Hepatotoxicity (acute),[5],11
same,Hepatotoxicity (acute),[6],0.6%
same,Hepatotoxicity (malignant tumour),[7],0
same,Hepatotoxicity (time to onset),[8],7 days - 1 year
same,Hepatotoxicity (choleostasis),[9],6
same,Hepatotoxicity (benign tumour),[10],0
same,Hepatotoxicity (granulomatous hepatitis),[12],0
same,Hepatotoxicity (chronic liver disease),[13],1
same,Hepatotoxicity (steatosis),[14],0
same,Hepatotoxicity (animal toxicity known),[15],yes
same,Hepatotoxicity (successful reintroduction),[16],yes
same,Hepatotoxicity (comment),[19],CHOLANGITE
same,Hepatotoxicity (severe hepatitis),[17],7
same,Hepatotoxicity (cytolytic),[18],10
Nc1c2c(nc3ccccc13)CCCC2 [TACRINE],Hepatotoxicity (association with vascular disease),[1],0
same,Hepatotoxicity (moderate),[2]; Liver,54%
same,Hepatotoxicity (moderate),[3],38
same,Hepatotoxicity (cirrhosis),[4],0
same,Hepatotoxicity (acute),[5],22
same,Hepatotoxicity (acute),[6]; Liver,13.4%
same,Hepatotoxicity (malignant tumour),[7],0
same,Hepatotoxicity (time to onset),[8],1 week - 1.7 years
same,Hepatotoxicity (choleostasis),[9]; Liver,1
same,Hepatotoxicity (benign tumour),[10],0
same,Hepatotoxicity (mechanism),[11]; Liver,Dose-dependant
same,Hepatotoxicity (granulomatous hepatitis),[12]; Liver,4
same,Hepatotoxicity (chronic liver disease),[13],0
same,Hepatotoxicity (steatosis),[14],1
same,Hepatotoxicity (animal toxicity known),[15],yes
same,Hepatotoxicity (successful reintroduction),[16],yes
same,Hepatotoxicity (severe hepatitis),[17]; Liver,2
same,Hepatotoxicity (cytolytic),[18]; Liver,19
C[C@H](CCC(=O)O)[C@H]1CC[C@H]2[C@@H]3[C@H](O)C[C@@H]4C[C@H](O)CC[C@]4(C)[C@H]3CC[C@]12C [CHENODIOL],Hepatotoxicity (association with vascular disease),[1],0
same,Hepatotoxicity (moderate),[2],37%
same,Hepatotoxicity (moderate),[3],22
same,Hepatotoxicity (cirrhosis),[4],0
same,Hepatotoxicity (acute),[5],5
same,Hepatotoxicity (acute),[6],3%
same,Hepatotoxicity (malignant tumour),[7],0
same,Hepatotoxicity (time to onset),[8],3 weeks - 3 months
same,Hepatotoxicity (choleostasis),[9],2
same,Hepatotoxicity (benign tumour),[10],0
same,Hepatotoxicity (mechanism),[11],Dose-dependant
same,Hepatotoxicity (granulomatous hepatitis),[12],0
same,Hepatotoxicity (chronic liver disease),[13],1
same,Hepatotoxicity (steatosis),[14],0
same,Hepatotoxicity (animal toxicity known),[15],yes
same,Hepatotoxicity (successful reintroduction),[16],yes
same,Hepatotoxicity (severe hepatitis),[17],0
same,Hepatotoxicity (cytolytic),[18],3
